Measured values as given in patent publication US12428380B2 (PSYLO PTY LTD, priority 2023, dated 2025).

What was measured:
5-HT2A = molecular target: T1, 5-HT2A (Homo sapiens, UniProt P28223); test: FLIPR Ca2+ flux functional assay, 5-HT2A (HEK293); assay type: cell-based; conditions: HEK293 cells expressing 5-HT2A; for Emax: HEK293, agonist activity; for EC50: agonist activity
T1 construct: host or cells: HEK293

5-HT2C = molecular target: T2, 5-HT2C (Homo sapiens, UniProt P28335); test: FLIPR Ca2+ flux functional assay, 5-HT2C (HEK293); assay type: cell-based; conditions: HEK293 cells expressing 5-HT2C; for Emax: HEK293, agonist activity
T2 construct: host or cells: HEK293
T2 sequence (P28335 33-458): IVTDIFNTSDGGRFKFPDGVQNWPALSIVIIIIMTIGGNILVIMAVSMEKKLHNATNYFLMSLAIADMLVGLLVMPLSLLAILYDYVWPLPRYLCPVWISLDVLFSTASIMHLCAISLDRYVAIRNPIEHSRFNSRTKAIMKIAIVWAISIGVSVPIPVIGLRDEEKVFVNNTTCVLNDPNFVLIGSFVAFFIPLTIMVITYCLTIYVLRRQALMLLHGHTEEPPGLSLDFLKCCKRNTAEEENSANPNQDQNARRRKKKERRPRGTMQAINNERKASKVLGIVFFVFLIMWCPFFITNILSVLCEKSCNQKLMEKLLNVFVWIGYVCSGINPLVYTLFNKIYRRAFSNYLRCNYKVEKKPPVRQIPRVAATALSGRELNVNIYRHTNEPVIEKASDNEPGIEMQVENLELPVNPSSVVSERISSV

5-HT2B [1] = molecular target: T3, 5-HT2B (Homo sapiens, UniProt P41595); test: Activation in a similar Ca2+ flux assay at a single concentration, 5-HT2B; assay type: cell-based; conditions: head prints 10 µM
T3 construct: host or cells: CHO-K1
Experimental: Activity at 5-HT2A, 5-HT2B and 5-HT2C receptors was determined using a FLIPR Ca2+ flux assay at WuXi AppTec Co. Ltd. (Hong Kong) Discovery Biology Unit according to their standard protocols. Briefly, stably transfected cells expressing the receptor of interest (HEK293 for 5-HT2A and 5-HT2C; CHO-K1 for 5-HT2B) were grown and plated in a 384 well plate and incubated at 37° C. and 5% CO2 overnight. A 250 mM stock solution of probenecid in FLIPR calcium assay buffer (10 mL) was freshly prepared and combined with a fluorescent dye (Fluo-4 Direct) to give a final assay concentration of 2.5 mM. Reference compounds were 4-fold serially diluted and the screening compounds were 3-fold serially diluted in 100% DMSO for 10 points using Agilent Bravo, and 750 nL was added to a 384 well compound plate using Echo along with 30 μL assay buffer. The fluorescent dye was then added to the assay plate along with assay buffer to a final volume of 40 μL. The cell plate was incubated for 50 min at 37° C. and 5% CO2 and placed into the FLIPR Tetra along with the compound plate. 10 μL of references and compounds were then transferred from the compound plate into the cell plate and the fluorescent signal was read.
Activation data are provided in a similar assay tested at a single 10 μM concentration.

ICR mice = test: Acute restraint stress - tail suspension test (Example 51a); assay type: in vivo, mouse; conditions: male ICR mice after 5 h acute restraint stress, IP, tested 10 min after treatment, FIGS. 6 and 7
Experimental: Male ICR mice (23±3 g) were purchased from BioLASCO (Taipei, Taiwan) at 4-5 weeks of age and allowed 5-7 days to acclimate to the animal research facility at Pharmacology Discovery Services (Taipei, Taiwan). Mice were housed in groups of 10 in a large cage (47×25×15 cm) on a 12-hour light cycle (lights on: 0700) and provided ad libitum food and water except during acute restraint stress and tail-suspension testing. Temperature was maintained at 20-24° C., and all rooms (colony and testing rooms) had similar lighting intensity. […] All experiments were conducted between 0900 to 1700 local time, during the light phase. […]
Tail Suspension Test (TST) Procedure: Mice were individually suspended on the edge of a shelf, 58 cm above a tabletop, using adhesive tape placed approximately 1 cm from the tip of the tail, for a total duration of 7 minutes. Using a stopwatch, the experimenters blinded to treatment groups recorded the duration of immobility (defined as hanging passively and motionless) during the 5 minutes spanning from 2-7 minutes. The data from 0-2 minutes was not recorded. […]

5-HT2B [2] = molecular target: T3, 5-HT2B; test: FLIPR Ca2+ flux functional assay, 5-HT2B (CHO-K1); assay type: cell-based; conditions: CHO-K1 cells expressing 5-HT2B; for Emax: CHO-K1, agonist activity

T3 sequence (P41595 whole entry, species assumed): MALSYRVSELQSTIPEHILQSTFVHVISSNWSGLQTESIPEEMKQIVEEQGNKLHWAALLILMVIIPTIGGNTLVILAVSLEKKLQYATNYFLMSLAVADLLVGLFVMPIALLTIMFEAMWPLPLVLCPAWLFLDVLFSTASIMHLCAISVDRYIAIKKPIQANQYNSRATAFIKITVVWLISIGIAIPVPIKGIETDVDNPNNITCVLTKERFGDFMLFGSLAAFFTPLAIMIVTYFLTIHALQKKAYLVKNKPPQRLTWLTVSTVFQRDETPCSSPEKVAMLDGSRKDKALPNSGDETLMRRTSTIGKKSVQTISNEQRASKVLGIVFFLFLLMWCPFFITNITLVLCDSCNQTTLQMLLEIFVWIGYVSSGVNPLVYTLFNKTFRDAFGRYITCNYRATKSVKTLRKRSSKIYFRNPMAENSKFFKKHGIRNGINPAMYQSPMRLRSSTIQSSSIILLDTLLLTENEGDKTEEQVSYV
T1 sequence (P28223 whole entry): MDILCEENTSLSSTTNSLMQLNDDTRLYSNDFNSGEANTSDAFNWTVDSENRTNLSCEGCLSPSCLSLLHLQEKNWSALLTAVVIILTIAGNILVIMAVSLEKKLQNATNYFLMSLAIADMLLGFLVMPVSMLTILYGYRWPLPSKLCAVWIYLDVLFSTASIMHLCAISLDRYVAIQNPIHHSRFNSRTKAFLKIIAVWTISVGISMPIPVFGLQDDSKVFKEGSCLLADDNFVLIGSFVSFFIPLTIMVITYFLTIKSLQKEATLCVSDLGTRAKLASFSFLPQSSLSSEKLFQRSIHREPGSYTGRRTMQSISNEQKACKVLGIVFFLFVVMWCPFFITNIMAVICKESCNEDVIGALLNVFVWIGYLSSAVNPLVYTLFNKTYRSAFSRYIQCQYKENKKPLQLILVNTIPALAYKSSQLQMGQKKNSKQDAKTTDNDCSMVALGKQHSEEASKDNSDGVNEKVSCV

SMILES	Emax (5-HT2A) [%]	EC50 (5-HT2A) [nM]	Emax (5-HT2C) [%]	EC50 (5-HT2C; agonist activity) [nM]	5-HT2B % Activation @ 10 µM (5-HT2B [1]) [%]	immobility time in tail suspension test (ICR mice)	5-HT2B Emax (5-HT2B [2]; agonist activity) [%]	5-HT2C Emax (5-HT2C; agonist activity) [%]	Emax (5-HT2B [2]) [%]
COc1cc2c(CCN(C)C)n[nH]c2cc1F [Example A5, 2-(6-fluoro-5-methoxy-1H-indazol-3-yl)-N,N-dimethylethan-1-amine]	87	44.1	105	281	44	decrease the immobility time	–	–	–
Fc1ccc2[nH]nc(CCN3CCCC3)c2c1F [Example A73, 4,5-difluoro-3-(2-(pyrrolidin-1-yl)ethyl)-1H-indazole]	87	768	70	1780	18	–	–	–	–
COc1ccccc1CNCCc1n[nH]c2ccc(F)c(F)c12 [Example A74, 2-(4,5-difluoro-1H-indazol-3-yl)-N-(2-methoxybenzyl)ethan-1-amine]	89	59.5	95	133	0	–	–	–	–
CN(C)CCc1n[nH]c2cccc(O)c12 [Example P-6]	66.4	43.1	–	–	–	–	0.34	−0.79	–
CN(C)CCc1n[nH]c2ccccc12 [Example P-7]	-0.3	–	40.2	–	–	–	–	–	0.17
COc1ccc2[nH]nc(CCN(C)C)c2c1 [Example P-8, 2-(5-methoxy-1H-indazol-3-yl)-N,N-dimethylethan-1-amine]	70	–	72.4	–	–	decrease the immobility time	–	–	17.9
CCN(CC)CCc1n[nH]c2cccc(OC)c12 [Example P-42, 2-(4-methoxy-1H-indazol-3-yl)-N,N-diethylethan-1-amine]	68.8	–	70.5	–	–	–	–	–	0.24
CCN(CC)CCc1n[nH]c2cccc(O)c12 [Example P-43, 3-(2-(diethylamino)ethyl)-1H-indazol-4-ol]	38.9	–	28.8	–	–	–	–	–	8.01
CCCN(CCC)CCc1n[nH]c2cccc(OC)c12 [Example P-44, 2-(4-methoxy-1H-indazol-3-yl)-N,N-dipropylethan-1-amine]	97.6	–	77.2	–	–	–	–	–	39.4
CCCN(CCC)CCc1n[nH]c2cccc(O)c12 [Example P-45, 3-(2-(dipropylamino)ethyl)-1H-indazol-4-ol]	100	–	40.2	–	–	–	–	–	8.93
CCN(CC)CCc1n[nH]c2ccc(OC)cc12 [Example P-48, N,N-diethyl-2-(5-methoxy-1H-indazol-3-yl)ethan-1-amine]	58.6	–	4.22	–	–	–	–	–	16.1
CCCN(CCC)CCc1n[nH]c2ccc(OC)cc12 [Example P-49, N,N-dipropyl-2-(5-methoxy-1H-indazol-3-yl)ethan-1-amine]	67.6	–	-0.46	–	–	–	–	–	30.7
CCN(C)CCc1n[nH]c2ccc(OC)cc12 [Example P-51, N-ethyl-2-(5-methoxy-1H-indazol-3-yl)-N-methylethan-1-amine]	79.1	–	24.6	–	–	–	–	–	30.9
COc1ccc2[nH]nc(CCN(C)C(C)C)c2c1 [Example P-52, N-(2-(5-methoxy-1H-indazol-3-yl)ethyl)-N-methylpropan-2-amine]	77.3	–	0.09	–	–	–	–	–	0.22
COc1cccc2[nH]nc(CCN(C)C)c12 [Example P-55, 2-(4-methoxy-1H-indazol-3-yl)-N,N-dimethylethan-1-amine]	58.7	–	83.6	–	–	–	–	–	1.35
